Laboratory results reported in ChEMBL document CHEMBL3991601, “The target landscape of clinical kinase drugs” (Science, 2017).
Calls of active or inactive are those of the source. Cut-off read from the data, not from the text of the source, for most assays here: actives have a measured Kd and inactives only a lower limit.

Experiments:
[1] = target: Deoxycytidine kinase (Homo sapiens, UniProt P27707)
[2] = target: T1, Mitogen-activated protein kinase kinase kinase kinase 2 (Homo sapiens, UniProt Q12851)
T1 sequence (Q12851 whole entry): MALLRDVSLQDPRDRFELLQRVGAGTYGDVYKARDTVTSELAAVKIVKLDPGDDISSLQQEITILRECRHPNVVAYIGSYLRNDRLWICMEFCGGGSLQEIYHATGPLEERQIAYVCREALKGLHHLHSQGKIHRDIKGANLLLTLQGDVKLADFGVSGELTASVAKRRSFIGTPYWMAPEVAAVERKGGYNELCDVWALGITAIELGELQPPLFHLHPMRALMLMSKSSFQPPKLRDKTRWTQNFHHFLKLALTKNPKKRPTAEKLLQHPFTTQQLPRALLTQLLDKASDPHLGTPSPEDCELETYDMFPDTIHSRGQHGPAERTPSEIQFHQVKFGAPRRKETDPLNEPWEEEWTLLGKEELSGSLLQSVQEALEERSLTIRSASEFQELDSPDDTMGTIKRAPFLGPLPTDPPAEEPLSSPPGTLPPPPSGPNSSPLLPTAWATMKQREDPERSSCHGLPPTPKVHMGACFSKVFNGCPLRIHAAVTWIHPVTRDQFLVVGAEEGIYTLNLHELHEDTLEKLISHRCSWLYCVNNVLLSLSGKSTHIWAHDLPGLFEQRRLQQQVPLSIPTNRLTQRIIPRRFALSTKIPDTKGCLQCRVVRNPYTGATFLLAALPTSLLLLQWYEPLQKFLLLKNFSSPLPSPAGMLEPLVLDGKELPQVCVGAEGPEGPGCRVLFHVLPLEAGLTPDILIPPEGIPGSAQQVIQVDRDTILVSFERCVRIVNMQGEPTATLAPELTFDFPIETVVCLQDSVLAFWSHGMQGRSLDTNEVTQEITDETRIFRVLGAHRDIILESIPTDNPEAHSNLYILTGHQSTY

[3] = target: T2, Cyclin-G-associated kinase (Homo sapiens, UniProt O14976)
T2 sequence (O14976 whole entry): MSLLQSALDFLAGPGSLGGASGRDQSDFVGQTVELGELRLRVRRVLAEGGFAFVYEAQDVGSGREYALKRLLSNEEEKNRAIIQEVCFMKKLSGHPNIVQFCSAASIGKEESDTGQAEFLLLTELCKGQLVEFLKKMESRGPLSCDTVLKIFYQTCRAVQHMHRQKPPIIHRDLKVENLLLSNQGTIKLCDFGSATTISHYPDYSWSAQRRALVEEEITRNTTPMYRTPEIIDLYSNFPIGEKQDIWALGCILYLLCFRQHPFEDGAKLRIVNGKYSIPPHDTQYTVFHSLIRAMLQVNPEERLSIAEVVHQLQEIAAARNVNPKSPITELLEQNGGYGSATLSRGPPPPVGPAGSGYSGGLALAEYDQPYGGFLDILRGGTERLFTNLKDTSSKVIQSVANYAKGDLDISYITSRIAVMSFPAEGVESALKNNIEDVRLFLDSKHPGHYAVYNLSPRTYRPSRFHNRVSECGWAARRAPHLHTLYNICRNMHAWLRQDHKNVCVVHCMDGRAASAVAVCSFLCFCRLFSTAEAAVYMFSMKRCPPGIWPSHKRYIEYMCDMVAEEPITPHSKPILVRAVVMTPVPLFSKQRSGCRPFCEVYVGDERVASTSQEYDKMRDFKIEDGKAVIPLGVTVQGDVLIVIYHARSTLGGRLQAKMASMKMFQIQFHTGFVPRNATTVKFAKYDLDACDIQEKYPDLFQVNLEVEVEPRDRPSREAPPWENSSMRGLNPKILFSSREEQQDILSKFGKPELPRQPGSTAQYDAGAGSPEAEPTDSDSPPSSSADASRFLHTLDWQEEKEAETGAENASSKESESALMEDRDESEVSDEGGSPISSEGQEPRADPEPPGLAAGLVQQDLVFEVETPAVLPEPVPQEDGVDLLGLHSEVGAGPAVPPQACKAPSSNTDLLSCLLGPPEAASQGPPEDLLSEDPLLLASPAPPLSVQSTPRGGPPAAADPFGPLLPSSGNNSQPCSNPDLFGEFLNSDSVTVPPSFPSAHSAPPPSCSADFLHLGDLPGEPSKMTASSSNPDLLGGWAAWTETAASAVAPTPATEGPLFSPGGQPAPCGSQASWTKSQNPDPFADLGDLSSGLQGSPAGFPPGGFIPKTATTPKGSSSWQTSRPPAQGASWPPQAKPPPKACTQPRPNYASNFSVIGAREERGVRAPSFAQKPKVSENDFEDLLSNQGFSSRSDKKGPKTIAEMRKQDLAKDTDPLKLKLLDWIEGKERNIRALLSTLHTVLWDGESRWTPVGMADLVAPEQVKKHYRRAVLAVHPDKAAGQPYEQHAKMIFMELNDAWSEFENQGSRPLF

[4] = target: T3, Phosphorylase b kinase gamma catalytic chain, liver/testis isoform (Homo sapiens, UniProt P15735)
T3 sequence (P15735 whole entry): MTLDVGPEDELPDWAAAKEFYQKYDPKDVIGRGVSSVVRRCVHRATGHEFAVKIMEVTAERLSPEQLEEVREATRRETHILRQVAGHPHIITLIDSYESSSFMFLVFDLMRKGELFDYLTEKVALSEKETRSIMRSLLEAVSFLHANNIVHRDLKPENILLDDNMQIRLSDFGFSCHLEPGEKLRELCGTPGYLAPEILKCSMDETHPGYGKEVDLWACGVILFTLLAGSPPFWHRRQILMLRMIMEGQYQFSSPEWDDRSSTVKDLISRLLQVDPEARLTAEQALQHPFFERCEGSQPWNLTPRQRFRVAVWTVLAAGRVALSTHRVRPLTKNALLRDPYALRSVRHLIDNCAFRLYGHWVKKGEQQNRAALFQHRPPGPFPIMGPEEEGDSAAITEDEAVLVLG

[5] = target: Casein kinase II subunit alpha' (Homo sapiens, UniProt P19784)
[6] = target: Ephrin type-A receptor 5 (Homo sapiens, UniProt P54756)
[7] = target: Tyrosine-protein kinase JAK1 (Homo sapiens, UniProt P23458)
Note: in the data inactive means no Kd found up to 30 µM.

Ephrin type-A receptor 5, sequence (P54756 whole entry): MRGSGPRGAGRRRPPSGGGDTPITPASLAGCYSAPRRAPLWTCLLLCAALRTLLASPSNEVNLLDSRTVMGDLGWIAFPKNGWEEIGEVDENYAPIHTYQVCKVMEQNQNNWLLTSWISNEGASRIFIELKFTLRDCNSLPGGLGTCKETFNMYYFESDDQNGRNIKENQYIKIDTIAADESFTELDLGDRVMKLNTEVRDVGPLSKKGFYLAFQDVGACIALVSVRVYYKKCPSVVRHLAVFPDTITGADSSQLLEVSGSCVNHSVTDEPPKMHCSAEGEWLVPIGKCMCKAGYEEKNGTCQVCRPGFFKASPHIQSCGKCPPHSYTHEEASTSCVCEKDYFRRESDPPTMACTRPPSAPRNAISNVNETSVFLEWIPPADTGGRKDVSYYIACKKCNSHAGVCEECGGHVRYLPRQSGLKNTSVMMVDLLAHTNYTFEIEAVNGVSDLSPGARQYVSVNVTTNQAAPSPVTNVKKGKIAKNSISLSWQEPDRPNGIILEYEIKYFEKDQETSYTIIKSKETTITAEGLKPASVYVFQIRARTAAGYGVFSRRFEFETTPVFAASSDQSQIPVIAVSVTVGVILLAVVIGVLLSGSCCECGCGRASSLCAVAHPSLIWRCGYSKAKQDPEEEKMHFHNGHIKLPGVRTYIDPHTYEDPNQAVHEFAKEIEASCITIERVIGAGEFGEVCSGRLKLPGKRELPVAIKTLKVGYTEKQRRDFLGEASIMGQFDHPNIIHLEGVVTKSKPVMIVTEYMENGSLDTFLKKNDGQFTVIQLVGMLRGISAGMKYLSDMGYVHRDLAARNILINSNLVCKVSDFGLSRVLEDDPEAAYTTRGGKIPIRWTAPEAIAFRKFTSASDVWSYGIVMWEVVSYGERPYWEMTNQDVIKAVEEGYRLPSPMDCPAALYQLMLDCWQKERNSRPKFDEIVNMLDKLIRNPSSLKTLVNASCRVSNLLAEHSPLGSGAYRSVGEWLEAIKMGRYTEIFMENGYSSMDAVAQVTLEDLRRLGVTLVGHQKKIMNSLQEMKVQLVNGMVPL
Deoxycytidine kinase, sequence (P27707 whole entry): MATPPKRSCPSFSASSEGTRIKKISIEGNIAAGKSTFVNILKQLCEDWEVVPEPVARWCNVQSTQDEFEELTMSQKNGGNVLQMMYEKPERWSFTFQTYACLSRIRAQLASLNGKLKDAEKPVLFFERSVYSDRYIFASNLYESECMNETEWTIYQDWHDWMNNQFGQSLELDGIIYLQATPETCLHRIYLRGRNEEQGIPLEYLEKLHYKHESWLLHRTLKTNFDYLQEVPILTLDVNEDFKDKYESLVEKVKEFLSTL
Tyrosine-protein kinase JAK1, sequence (P23458 whole entry): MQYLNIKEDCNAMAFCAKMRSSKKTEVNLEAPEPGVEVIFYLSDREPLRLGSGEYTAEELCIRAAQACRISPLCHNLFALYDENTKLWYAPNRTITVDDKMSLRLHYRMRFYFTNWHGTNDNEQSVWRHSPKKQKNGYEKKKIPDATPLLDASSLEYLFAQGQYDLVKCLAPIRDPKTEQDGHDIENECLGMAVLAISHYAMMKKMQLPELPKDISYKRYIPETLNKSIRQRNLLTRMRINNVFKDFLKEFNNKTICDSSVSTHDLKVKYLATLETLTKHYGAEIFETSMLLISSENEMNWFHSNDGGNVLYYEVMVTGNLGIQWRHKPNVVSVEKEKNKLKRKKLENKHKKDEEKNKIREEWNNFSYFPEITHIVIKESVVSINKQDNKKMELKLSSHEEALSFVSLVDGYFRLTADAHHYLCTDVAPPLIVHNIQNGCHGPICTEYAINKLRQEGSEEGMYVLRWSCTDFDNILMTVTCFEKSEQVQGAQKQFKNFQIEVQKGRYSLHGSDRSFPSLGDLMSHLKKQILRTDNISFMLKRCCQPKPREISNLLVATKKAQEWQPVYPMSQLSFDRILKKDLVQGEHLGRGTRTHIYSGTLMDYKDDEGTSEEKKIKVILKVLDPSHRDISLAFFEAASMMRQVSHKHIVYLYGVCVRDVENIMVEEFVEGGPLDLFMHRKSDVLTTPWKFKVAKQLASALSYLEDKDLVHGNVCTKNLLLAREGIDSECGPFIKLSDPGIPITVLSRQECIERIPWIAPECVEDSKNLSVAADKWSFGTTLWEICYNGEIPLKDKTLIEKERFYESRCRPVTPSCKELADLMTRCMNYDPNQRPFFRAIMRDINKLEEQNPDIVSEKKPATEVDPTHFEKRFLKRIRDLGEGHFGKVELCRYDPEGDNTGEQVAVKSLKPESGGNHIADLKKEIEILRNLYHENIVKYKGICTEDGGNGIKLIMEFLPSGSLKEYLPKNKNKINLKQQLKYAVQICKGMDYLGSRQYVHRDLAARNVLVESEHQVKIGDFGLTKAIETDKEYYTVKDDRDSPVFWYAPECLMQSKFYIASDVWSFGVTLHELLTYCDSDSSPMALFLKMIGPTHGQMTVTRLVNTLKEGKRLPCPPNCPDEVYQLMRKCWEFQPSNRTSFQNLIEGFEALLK
Casein kinase II subunit alpha', sequence (P19784 whole entry): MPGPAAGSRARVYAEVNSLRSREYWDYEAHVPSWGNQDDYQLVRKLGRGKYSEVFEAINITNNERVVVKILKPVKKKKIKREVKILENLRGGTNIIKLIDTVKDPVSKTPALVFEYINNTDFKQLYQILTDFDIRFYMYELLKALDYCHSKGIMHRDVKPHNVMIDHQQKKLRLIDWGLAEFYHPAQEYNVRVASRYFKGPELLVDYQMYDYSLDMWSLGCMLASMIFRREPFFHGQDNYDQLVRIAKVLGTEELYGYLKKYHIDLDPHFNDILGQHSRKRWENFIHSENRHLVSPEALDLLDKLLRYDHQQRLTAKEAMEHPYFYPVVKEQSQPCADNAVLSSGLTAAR

Row | Structure (SMILES) | Kd [1] | Kd [2] | Kd [3] | Kd [4] | Kd [5] | Kd [6] | Kd [7]
1 | CNC(=O)c1ccc(C)c(-n2c(C)cc(OCc3ccc(F)cc3F)c(Br)c2=O)c1 [PH-797804] | > 30 µM (inactive) | > 30 µM (inactive) | > 30 µM (inactive) | > 30 µM (inactive) | > 30 µM (inactive) | > 30 µM (inactive) | > 30 µM (inactive)
2 | CNC(=O)c1cc(Oc2ccc(NC(=O)Nc3ccc(Cl)c(C(F)(F)F)c3)c(F)c2)ccn1 [REGORAFENIB] | > 30 µM (inactive) | > 30 µM (inactive) | > 30 µM (inactive) | > 30 µM (inactive) | > 30 µM (inactive) | 1.12 µM | > 30 µM (inactive)
3 | COCCNCc1ccc(-c2cc3nccc(Oc4ccc(NC(=S)NC(=O)Cc5ccc(F)cc5)cc4F)c3s2)nc1 [GLESATINIB] | > 30 µM (inactive) | > 30 µM (inactive) | > 30 µM (inactive) | > 30 µM (inactive) | > 30 µM (inactive) | > 30 µM (inactive) | > 30 µM (inactive)
4 | CCN1CCN(Cc2ccc(-c3cc4c(N[C@H](C)c5ccccc5)ncnc4[nH]3)cc2)CC1 [AEE-788] | > 30 µM (inactive) | 3.53 µM (active) | > 30 µM (inactive) | > 30 µM (inactive) | > 30 µM (inactive) | > 30 µM (inactive) | > 30 µM (inactive)
5 | CN1CC[C@@H](c2c(O)cc(O)c3c(=O)cc(-c4ccccc4Cl)oc23)[C@@H]1CO | > 30 µM (inactive) | > 30 µM (inactive) | > 30 µM (inactive) | > 30 µM (inactive) | > 30 µM (inactive) | > 30 µM (inactive) | > 30 µM (inactive)
6 | COc1cc(OC)c(/C=C/S(=O)(=O)Cc2ccc(OC)c(NCC(=O)O)c2)c(OC)c1 [RIGOSERTIB] | > 30 µM (inactive) | > 30 µM (inactive) | > 30 µM (inactive) | > 30 µM (inactive) | > 30 µM (inactive) | > 30 µM (inactive) | > 30 µM (inactive)
7 | C1=C/COCc2cc(ccc2OCCN2CCCC2)Nc2nccc(n2)-c2cccc(c2)COC/1 [PACRITINIB] | > 30 µM (inactive) | 3.72 µM (active) | 0.674 µM (active) | > 30 µM (inactive) | 0.394 µM (active) | > 30 µM (inactive) | > 30 µM (inactive)
8 | COc1cc2nccc(Oc3ccc(NC(=O)Nc4cc(C)on4)c(Cl)c3)c2cc1OC [TIVOZANIB] | > 30 µM (inactive) | 2.38 µM (active) | > 30 µM (inactive) | > 30 µM (inactive) | > 30 µM (inactive) | 0.601 µM (active) | > 30 µM (inactive)
9 | CNC(=O)c1ccc(-c2cnc3ncc(Cc4ccc5ncccc5c4)n3n2)cc1F [CAPMATINIB] | > 30 µM (inactive) | > 30 µM (inactive) | > 30 µM (inactive) | > 30 µM (inactive) | > 30 µM (inactive) | > 30 µM (inactive) | > 30 µM (inactive)
10 | C[C@@H](c1ccc2nccn2c1)n1nnc2ncc(-c3cnn(C)c3)nc21 [SAVOLITINIB] | > 30 µM (inactive) | > 30 µM (inactive) | > 30 µM (inactive) | > 30 µM (inactive) | > 30 µM (inactive) | > 30 µM (inactive) | > 30 µM (inactive)
11 | CC[C@@H]1C(=O)N(C)c2cnc(Nc3ccc(C(=O)N[C@H]4CC[C@H](N5CCN(CC6CC6)CC5)CC4)cc3OC)nc2N1C(C)C [VOLASERTIB] | > 30 µM (inactive) | > 30 µM (inactive) | > 30 µM (inactive) | > 30 µM (inactive) | > 30 µM (inactive) | > 30 µM (inactive) | > 30 µM (inactive)
12 | Cc1cc2c(F)c(Oc3ncnn4cc(OC[C@@H](C)OC(=O)[C@H](C)N)c(C)c34)ccc2[nH]1 [BRIVANIB ALANINATE] | > 30 µM (inactive) | > 30 µM (inactive) | > 30 µM (inactive) | > 30 µM (inactive) | > 30 µM (inactive) | > 30 µM (inactive) | > 30 µM (inactive)
13 | CN1N=C(N)c2cn([C@@H]3O[C@H](COP(=O)(O)O)[C@@H](O)[C@H]3O)c3ncnc1c23 [TRICIRIBINE PHOSPHATE] | > 30 µM (inactive) | > 30 µM (inactive) | > 30 µM (inactive) | > 30 µM (inactive) | > 30 µM (inactive) | > 30 µM (inactive) | > 30 µM (inactive)
14 | Cc1cc([C@@H](C)Nc2ccccc2C(=O)O)c2nc(N3CCOCC3)cc(=O)n2c1 [AZD-6482] | > 30 µM (inactive) | > 30 µM (inactive) | > 30 µM (inactive) | > 30 µM (inactive) | > 30 µM (inactive) | > 30 µM (inactive) | > 30 µM (inactive)
15 | COC(=O)[C@@]1(O)C[C@H]2O[C@]1(C)n1c3ccccc3c3c4c(c5c6ccccc6n2c5c31)C(=O)NC4 [K-252A] | > 30 µM (inactive) | 0.131 µM (active) | 1.27 µM (active) | 3.26 µM (active) | > 30 µM (inactive) | > 30 µM (inactive) | > 30 µM (inactive)
16 | Cc1cc(-c2cc(O)ccc2Cl)cc2nnc(Nc3ccc(OCCN4CCCC4)cc3)nc12 | > 30 µM (inactive) | > 30 µM (inactive) | 0.002 µM (active) | > 30 µM (inactive) | > 30 µM (inactive) | 0.0004 µM (active) | > 30 µM (inactive)
17 | Cc1c(F)cc(C(=O)NC2CC2)cc1-c1ccc(C(=O)NCC(C)(C)C)cn1 [LOSMAPIMOD] | > 30 µM (inactive) | > 30 µM (inactive) | > 30 µM (inactive) | > 30 µM (inactive) | > 30 µM (inactive) | > 30 µM (inactive) | > 30 µM (inactive)
18 | O=C(c1ccc(F)c(F)c1Nc1ccc(I)cc1F)N1CC(O)([C@@H]2CCCCN2)C1 [COBIMETINIB] | > 30 µM (inactive) | > 30 µM (inactive) | > 30 µM (inactive) | > 30 µM (inactive) | > 30 µM (inactive) | > 30 µM (inactive) | > 30 µM (inactive)
